Data taken from publication PMC5514153, “Targeting PTPRZ inhibits stem cell-like properties and tumorigenicity in glioblastoma cells” (Scientific Reports, 2017).

Columns and labels:
hPTPN6 = biological target: T1, hPTPN6 (Homo sapiens, UniProt P29350); assay: In vitro PTPase assay (DiFMUP), PTPN6; type: biochemical; conditions: 60-min preincubation
T1 construct: the catalytic domains of PTPN1 and PTPN6 were expressed as glutathione-S-transferase (GST) fusion proteins; GST (N); made in house; host or cells: Escherichia coli BL21
T1 sequence (P29350 244-515 limits assumed): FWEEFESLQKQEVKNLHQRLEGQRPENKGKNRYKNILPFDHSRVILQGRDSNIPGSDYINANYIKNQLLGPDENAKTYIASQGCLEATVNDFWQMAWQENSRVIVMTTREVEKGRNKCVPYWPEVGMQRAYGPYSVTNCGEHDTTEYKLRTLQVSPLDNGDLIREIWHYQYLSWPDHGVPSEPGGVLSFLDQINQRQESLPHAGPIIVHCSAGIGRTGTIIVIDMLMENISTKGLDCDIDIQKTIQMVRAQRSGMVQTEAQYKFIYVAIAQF
Protocol: Figure 4 NAZ2329, an allosteric inhibitor of R5 RPTP subfamily members. (A) Structure of NAZ2329. (B) Effect of preincubation of NAZ2329 on its inhibitory activity against PTPRZ. Recombinant human PTPRZ1 enzyme (the whole intracellular region) was premixed with NAZ2329 for the indicated times and followed by addition of a fluorogenic DiFMUP (non-specific PTP substrate, 6,8-difluoro-4-methylumbiliferyl phosphate) to measure PTP inhibitory activity. (C) Time dependence. The PTPRZ1 enzyme was added to the inhibitor–substrate mixture, and the inhibitory activity was determined at each time point relative to the vehicle control. (D) Reversibility of inhibition. […] The mixture was then 20-fold diluted, and recovered PTP activity was expressed as the relative activity compared with the vehicle-treated enzyme. […] PTPRZ1 enzymes were preincubated with NAZ2329 for 60 min, and the PTP activity was measured using DiFMUP. […]
Recombinant proteins corresponding to the entire intracellular regions (ICRs) of PTPRZ1, PTPRA, and PTPRM were expressed using a baculovirus-silkworm expression system, and purified as described. The ICRs of PTPRG, PTPRS, and PTPRB and the catalytic domains of PTPN1 and PTPN6 were expressed as glutathione-S-transferase (GST) fusion proteins from each pGEX plasmid in Escherichia coli strain BL21 (ref. [6]). […]

[1] = system: oligodendrocyte precursor OL1 cells; assay: OL1 oligodendrocyte differentiation assay; type: cell-based, mouse; conditions: 10 days in differentiation media
Protocol: Figure 6 Effects of NAZ2329 treatment on oligodendrocyte differentiation. Mouse oligodendrocyte-lineage OL1 cells were cultured in differentiation media containing the indicated concentrations of NAZ2329. After 10 days, cells were fixed with formalin and stained with anti-NG2 proteoglycan (oligodendrocyte precursor cells, red) and anti-MBP (oligodendrocyte, green) antibodies, in conjunction with the DAPI-labeling of nuclei (blue). Scale bars, 100 µm.
The preparation of mouse oligodendrocyte-lineage OL1 cells was described previously. […] On the 10th day of the culture, differentiation from oligodendrocyte precursor cells to oligodendrocytes was assessed was described previously[14]–[16]. Briefly, cells were fixed and stained with anti-NG2 (a specific marker for oligodendrocyte precursor cells) and anti-MBP (a marker for matured oligodendrocytes), and the observed with a standard fluorescence microscope (Biozero BZ8000, Keyence). Differentiation from oligodendrocyte precursor cells to oligodendrocytes was expressed as the ratio of MBP-positive cells to NG2-positive cells.

IC50 (hPTPN6): 15.2 µM
SMILES: CCOc1ccc(C(F)(F)F)cc1CSc1ccsc1C(=O)NS(=O)(=O)c1ccccc1 [NAZ2329]
differentiation of OL1 cells to mature oligodendrocytes (MBP-positive/NG2-positive ratio) [1]: dose-dependently induced the differentiation
